Patent US20080242663A1, “NOVEL PYRIMIDINE DERIVATIVES 698” (ASTRAZENECA AB, priority 2007, published 2008)

Legend:
recombinant EphB4 = biological target: T1, recombinant EphB4 (Homo sapiens, UniProt P54760); experiment: In vitro EphB4 enzyme assay (Alphascreen); assay type: biochemical
T1 construct: amino acids 563-987; Swiss-Prot Acc; No. P54760; purchased ProQinase GmbH 0178-0000-3
T1 sequence (P54760 563-987): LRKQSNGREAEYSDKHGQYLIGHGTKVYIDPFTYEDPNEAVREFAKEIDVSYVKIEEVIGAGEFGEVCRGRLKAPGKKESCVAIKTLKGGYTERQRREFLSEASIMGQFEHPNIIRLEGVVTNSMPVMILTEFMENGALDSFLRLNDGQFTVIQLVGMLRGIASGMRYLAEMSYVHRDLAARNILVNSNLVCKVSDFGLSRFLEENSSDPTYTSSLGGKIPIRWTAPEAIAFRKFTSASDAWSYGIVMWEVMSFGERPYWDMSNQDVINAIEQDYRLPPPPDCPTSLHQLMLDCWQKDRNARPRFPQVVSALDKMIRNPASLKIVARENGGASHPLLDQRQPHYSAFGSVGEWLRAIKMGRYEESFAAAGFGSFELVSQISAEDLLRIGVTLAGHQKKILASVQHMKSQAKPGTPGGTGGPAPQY
How it was run: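 Recombinant EphB4 phosphorylated biotin-poly-GAT with Mg-ATP for 1 hr at room temperature; EDTA stop, then Alphascreen donor/acceptor (anti-phosphotyrosine) beads for 20 hrs in the dark. After minimum subtraction, signal plotted against compound concentration to derive IC50.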

human EphB4 = biological target: T2, human EphB4 (Homo sapiens, UniProt P54760); experiment: In vitro EphB4 cell assay (EphB4 phosphorylation in EphB4-CHO cells, sandwich ELISA); assay type: cell-based; details: Assay B
T2 construct: to generate full-length EphB4 containing a Myc-His tag at the C-terminus; expressed in transfected cells; EphB4-CHO)
T2 sequence (P54760 16-987): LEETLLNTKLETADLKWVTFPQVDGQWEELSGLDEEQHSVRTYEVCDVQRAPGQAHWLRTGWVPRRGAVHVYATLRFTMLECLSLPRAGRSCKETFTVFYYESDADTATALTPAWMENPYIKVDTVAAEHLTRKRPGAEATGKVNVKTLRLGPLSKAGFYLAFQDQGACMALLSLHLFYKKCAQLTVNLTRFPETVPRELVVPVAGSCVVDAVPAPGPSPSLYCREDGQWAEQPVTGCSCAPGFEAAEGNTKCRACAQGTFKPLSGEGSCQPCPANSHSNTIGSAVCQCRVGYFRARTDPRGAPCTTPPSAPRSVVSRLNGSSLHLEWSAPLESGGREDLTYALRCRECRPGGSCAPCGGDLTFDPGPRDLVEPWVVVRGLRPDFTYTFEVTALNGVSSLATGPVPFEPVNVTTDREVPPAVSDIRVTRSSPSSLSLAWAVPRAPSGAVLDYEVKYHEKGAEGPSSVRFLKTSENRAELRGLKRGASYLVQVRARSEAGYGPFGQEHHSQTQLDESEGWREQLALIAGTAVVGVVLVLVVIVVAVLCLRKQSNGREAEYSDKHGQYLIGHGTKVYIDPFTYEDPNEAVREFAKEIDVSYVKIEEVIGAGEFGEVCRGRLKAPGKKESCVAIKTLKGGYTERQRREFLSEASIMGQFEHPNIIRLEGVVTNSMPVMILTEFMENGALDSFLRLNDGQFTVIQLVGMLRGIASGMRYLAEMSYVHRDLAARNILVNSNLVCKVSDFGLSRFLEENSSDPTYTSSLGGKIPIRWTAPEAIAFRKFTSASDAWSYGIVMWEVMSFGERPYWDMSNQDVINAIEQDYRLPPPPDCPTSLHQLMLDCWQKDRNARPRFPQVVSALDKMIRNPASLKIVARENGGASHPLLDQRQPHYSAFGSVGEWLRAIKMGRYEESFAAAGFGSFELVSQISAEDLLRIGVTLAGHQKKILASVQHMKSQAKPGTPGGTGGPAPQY
Experimental: The assay identifies inhibitors of cellular EphB4 by measuring a decrease in phosphorylation of EphB4 following treatment of cells with compound. The endpoint assay used a sandwich ELISA to detect EphB4 phosphorylation status. Briefly, Myc-tagged EphB4 from treated cell lysate was captured on the ELISA plate via an anti-c-Myc antibody. The phosphorylation status of captured EphB4 was then measured using a generic phosphotyrosine antibody conjugated to HRP via a colourimetric output catalysed by HRP, with level of EphB4 phosphorylation directly proportional to the colour intensity. Absorbance was measured spectrophotometrically at 450 nm.
Full length human EphB4 (Swiss-Prot Acc. No. P54760) was cloned using standard techniques from cDNA prepared from HUVEC using RT-PCR. The cDNA fragment was then sub-cloned into a pcDNA3.1 expression vector containing a Myc-His epitope tag to generate full-length EphB4 containing a Myc-His tag at the C-terminus (Invitrogen Ltd. Paisley, UK). […] CHO-K1 cells were engineered to stably express the EphB4-Myc-His construct using standard stable transfection techniques, to generate cells hereafter termed EphB4-CHO.
On day 2, the cells were incubated overnight in 90 μl/well of media containing 0.1% Hyclone stripped-serum (Fisher Scientific UK, Catalogue No. SH30068.02). […] A 10 μl aliquot of each compound dilution was transferred to the cell plates in duplicate wells, and the cells incubated for 1 hr at 37° C.
Following compound treatment, cells were stimulated with clustered ephrin-B2 at a final concentration of 1 μg/ml for 20 minutes at 37° C. to induce EphB4 phosphorylation. Following stimulation, the medium was removed and the cells lysed in 100 μl/well of lysis buffer (25 mM Tris HCl, 3 mM EDTA, 3 mM EGTA, 50 mM NaF, 2 mM orthovanadate, 0.27M Sucrose, 10 mM β-glycerophosphate, 5 mM sodium pyrophosphate, 2% Triton X-100, pH 7.4).
Plates were washed twice with PBS/0.05% Tween-20 and incubated with 100 μl/well cell lysate overnight at 4° C. […] ELISA plates were washed four times with PBS/0.05% Tween-20 and developed with 100 μl/well TMB substrate (Sigma-Aldrich Company Ltd, Catalogue No. T0440). The reaction was stopped after 15 minutes with the addition of 25 μl/well 2M sulphuric acid. The absorbances were determined at 450 nm using the Tecan SpectraFluor Plus. The minimum value was subtracted from all values, and the signal plotted against compound concentration to generate IC50 data.

Row | Compound | IC50 (recombinant EphB4) [µM] | IC50 (human EphB4) [µM]
1 | CN(c1ccnc(Nc2cc(F)cc(N3CCOCC3)c2)n1)c1ccc(F)c(Cl)c1F [Example 2.2, N′-(3-chloro-2,4-difluoro-phenyl)-N-(3-fluoro-5-morpholin-4-yl-phenyl)-N′-methyl-pyrimidine-2,4-diamine] | 2.18 | 0.074
2 | CN(c1cccc(Cl)c1)c1ccnc(Nc2cc(C(=O)N3CC[C@@H](O)C3)cc(N3CCOCC3)c2)n1 [Example 19.22, [3-[[4-[(3-chlorophenyl)-methyl-amino]pyrimidin-2-yl]amino]-5-morpholin-4-yl-phenyl]-[(3R)-3-hydroxypyrrolidin-1-yl]methanone] | 0.119 | 
3 | C[C@H](CO)NC(=O)c1cc(Nc2nccc(N(C)c3cccc(Cl)c3)n2)cc(N2CCOCC2)c1 [Example 19.23, 3-[[4-[(3-chlorophenyl)-methyl-amino]pyrimidin-2-yl]amino]-N-[(2R)-1-hydroxypropan-2-yl]-5-morpholin-4-yl-benzamide] | 1.31 | 
4 | CN(c1cccc(Cl)c1)c1ccnc(Nc2cc(C(=O)NC3CCOCC3)cc(N3CCOCC3)c2)n1 [Example 19.24, 3-[[4-[(3-chlorophenyl)-methylamino]pyrimi-din-2-yl]amino]-5-morpholin-4-yl-N-(oxan-4-yl)benzamide] | 1 | 
5 | CCNC(=O)c1cc(Nc2nccc(N(C)c3cccc(Cl)c3)n2)cc(N2CCOCC2)c1 [Example 19.25, 3-[[4-[(3-chlorophenyl)-methylamino]pyrimidin-2-yl]amino]-N-ethyl-5-morpholin-4-ylbenzamide] | 0.875 | 
6 | COc1cccc(N(c2ccnc(Nc3cc(N4CCOCC4)cc(N4CCOCC4)c3)n2)C(C)C)c1 [Example 20, N2-(3,5-dimorpholinophenyl)-N4-isopropyl-N4-(3-methoxyphenyl)pyrimidine-2,4-diamine] | 0.912 | 
7 | Cc1ccc(CO)cc1N(CCO)c1ccnc(Nc2cc(N3CCOCC3)cc(N3CCOCC3)c2)n1 [Example 21.3] | 0.025 | 
8 | COCCN(c1ccnc(Nc2cc(N3CCOCC3)cc(N3CCOCC3)c2)n1)c1cc(OC)ccc1C [Example 22.1, N-(3,5-dimorpholin-4-ylphenyl)-N′-(2-methoxyethyl)-N′-(5-methoxy-2-methyl-phenyl)pyrimidine-2,4-diamine] | 1.48 | 
9 | COc1ccc(C)c(N(c2ccnc(Nc3cc(N4CCOCC4)cc(N4CCOCC4)c3)n2)C(C)C)c1 [Example 22.2, N-(3,5-dimorpholin-4-ylphenyl)-N′-(5-methoxy-2-methyl-phenyl)-N′-propan-2-yl-pyrimidine-2,4-diamine] | 1.86 | 
10 | CCN(c1ccnc(Nc2cc(N3CCOCC3)cc(N3CCOCC3)c2)n1)c1cc(OC)ccc1C [Example 22.3, N-(3,5-dimorpholin-4-ylphenyl)-N′-ethyl-N′-(5-methoxy-2-methyl-phenyl)pyrimidine-2,4-diamine] | 1.19 | 
11 | COc1ccc(C)c(N(CCO)c2ccnc(Nc3cc(N4CCOCC4)cc(N4CCOCC4)c3)n2)c1 [Example 22.4, 2-[[2-[(3,5-dimorpholin-4-ylphenyl)amino]pyrimidin-4-yl]-(5-methoxy-2-methyl-phenyl)amino]ethanol] | 0.802 | 
12 | CN(c1cccc(Cl)c1)c1ccnc(Nc2cc(N3CCOCC3)cc(N3CCC(O)CC3)c2)n1 [Example 23, 1-[3-({4-[(3-chlorophenyl)(methyl)amino]pyrimidin-2-yl}amino)-5-morpholin-4-ylphenyl]piperidin-4-ol] | 0.00171 | 
13 | CN1CCN(c2cc(Nc3nccc(N(C)c4cccc(Cl)c4)n3)cc(N3CCOCC3)c2)CC1 [Example 24, N4-(3-chlorophenyl)-N4-methyl-N2-[3-(4-methylpiperazin-1-yl)-5-morpholin-4-ylphenyl]pyrimidine-2,4-diamine] | 0.000581 | 
14 | Cc1cccc(CO)c1N(C)c1ccnc(Nc2cc(N3CCOCC3)cc(N3CCOCC3)c2)n1 [Example 25.1, (2-((2-(3,5-dimorpholinophenylamino)pyrimidin-4-yl)(methyl)amino)-3-methylphenyl)methanol] | 0.0528 | 
15 | COc1cccc(C)c1N(C)c1ccnc(Nc2cc(N3CCOCC3)cc(N3CCOCC3)c2)n1 [Example 25.2, N2-(3,5-dimorpholinophenyl)-N4-(2-methoxy-6-methylphenyl)-N4-methylpyrimidine-2,4-diamine] | 0.0769 | 
16 | CN(c1ccnc(Nc2cc(N3CCOCC3)cc(N3CCOCC3)c2)n1)c1cc(CO)ccc1F [Example 25.3, (3-((2-(3,5-dimorpholinophenylamino)pyrimidin-4-yl)(methyl)amino)-4-fluorophenyl)methanol] | 0.0115 | 
17 | CN(c1ccnc(Nc2cc(N3CCOCC3)cc(N3CCOCC3)c2)n1)c1cccc(CO)c1F [Example 25.4, (3-((2-(3,5-dimorpholinophenylamino)pyrimidin-4-yl)(methyl)amino)-2-fluorophenyl)methanol] | 0.0116 | 
18 | CC(=O)c1ccc(C)c(N(C)c2ccnc(Nc3cc(N4CCOCC4)cc(N4CCOCC4)c3)n2)c1 [Example 25.5, 1-(3-((2-(3,5-dimorpholinophenylamino)pyrimidin-4-yl)(methyl)amino)-4-methylphenyl)ethanone] | 0.127 | 
19 | COc1ccc(F)c(N(C)c2ccnc(Nc3cc(N4CCOCC4)cc(N4CCOCC4)c3)n2)c1 [Example 25.6, N2-(3,5-dimorpholinophenyl)-N4-(2-fluoro-5-methoxyphenyl)-N4-methylpyrimidine-2,4-diamine] | 0.00788 | 
20 | COc1ccc(CO)c(N(C)c2ccnc(Nc3cc(N4CCOCC4)cc(N4CCOCC4)c3)n2)c1 [Example 25.7, (2-((2-(3,5-dimorpholinophenylamino)pyrimidin-4-yl)(methyl)amino)-4-methoxyphenyl)methanol] | 0.0103 | 
21 | CN(c1ccnc(Nc2cc(N3CCOCC3)cc(N3CCOCC3)c2)n1)c1cc(Cl)ccc1CO [Example 25.8, (4-chloro-2-((2-(3,5-dimorpholinophenylamino)pyrimidin-4-yl)(methyl)amino)phenyl)methanol] | 0.00639 | 
